# Columns and labels:
# AZD8186 = compound: C[C@@H](Nc1cc(F)cc(F)c1)c1cc(C(=O)N(C)C)cc2c(=O)cc(N3CCOCC3)oc12 [AZD8186]
# Summary of the method: (§1)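 Viability was measured with CellTiter-Glo 2.0 luminescence after 72 hours of dosing at a final DMSO of typically 0.2%, and scaled between blank-well and DMSO-well means. Beforehand, cancer cell lines sat 24 hours at 37°C and 5% CO2 in 1536-well plates in 7.5 μl DMEM/F12 or RPMI with 10% FBS. A non-linear mixed effects model fitted two-parameter logistic curves to the dose responses. The single-agent IC50 comes from these fits.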
# AZD1775 = compound: C=CCn1c(=O)c2cnc(Nc3ccc(N4CCN(C)CC4)cc3)nc2n1-c1cccc(C(C)(C)O)n1 [AZD1775]; conditions: max 3 µM
# Summary of the method: as §1
# Savolitinib = compound: C[C@@H](c1ccc2nccn2c1)n1nnc2ncc(-c3cnn(C)c3)nc21 [Savolitinib]; conditions: max 1 µM
# Summary of the method: as §1
# Trametinib = compound: CC(=O)Nc1cccc(-n2c(=O)n(C3CC3)c(=O)c3c(Nc4ccc(I)cc4F)n(C)c(=O)c(C)c32)c1 [Trametinib]; conditions: max 1 µM
# Summary of the method: as §1
# AZD2811 = compound: CCN(CCO)CCCOc1ccc2c(Nc3cc(CC(=O)Nc4cccc(F)c4)[nH]n3)ncnc2c1 [AZD2811]; conditions: max 1 µM
# Summary of the method: as §1
# Lapatinib = compound: CS(=O)(=O)CCNCc1ccc(-c2ccc3ncnc(Nc4ccc(OCc5cccc(F)c5)c(Cl)c4)c3c2)o1 [Lapatinib]; conditions: max 10 µM
# Summary of the method: as §1
# Palbociclib = compound: CC(=O)c1c(C)c2cnc(Nc3ccc(N4CCNCC4)cn3)nc2n(C2CCCC2)c1=O [Palbociclib]; conditions: max 10 µM
# Summary of the method: as §1
# Prexasertib = compound: COc1cccc(OCCCN)c1-c1cc(Nc2cnc(C#N)cn2)n[nH]1 [Prexasertib]; conditions: max 1 µM
# Summary of the method: as §1
# SRA737 = compound: N#Cc1cnc(Nc2cc(NC[C@H]3CNCCO3)c(C(F)(F)F)cn2)cn1 [SRA737]; conditions: max 10 µM
# Summary of the method: as §1
# Olaparib = compound: O=C(c1cc(Cc2n[nH]c(=O)c3ccccc23)ccc1F)N1CCN(C(=O)C2CC2)CC1 [Olaparib]; conditions: max 10 µM
# Summary of the method: as §1
# Gefitinib = compound: COc1cc2ncnc(Nc3ccc(F)c(Cl)c3)c2cc1OCCCN1CCOCC1 [Gefitinib]; conditions: max 10 µM
# Summary of the method: as §1
# Carboplatin = compound: C1CC(C1)(C(=O)[O-])C(=O)[O-].N.N.[Pt+2] [Carboplatin]; conditions: max 10 µM
# Summary of the method: as §1
# SN-38 = compound: CCc1c2c(nc3ccc(O)cc13)-c1cc3c(c(=O)n1C2)COC(=O)[C@]3(O)CC [SN-38]; conditions: max 0.3 µM
# Summary of the method: as §1
# AZD4320 = compound: CN(CC[C@H](CSC1=CC=CC=C1)NC2=C(C=C(C=C2)S(=O)(=O)NC(=O)C3=CC=C(C=C3)N4CCC(CC4)[C@H](C5=CC=CC=C5C6=CC=C(C=C6)Cl)O)S(=O)(=O)C(F)(F)F)CCO [AZD4320]; conditions: max 1 µM
# Summary of the method: as §1
# Dasatinib = compound: CC1=C(C(=CC=C1)Cl)NC(=O)C2=CN=C(S2)NC3=CC(=NC(=N3)C)N4CCN(CC4)CCO [Dasatinib]; conditions: max 2 µM
# Summary of the method: as §1
# [1] = compound: O=C(Nc1ccc2[nH]nc(-c3ccncc3)c2c1)[C@@H]1CCN(CC(=O)N2CCN(c3ccc(-c4ncccn4)cc3)CC2)C1; conditions: max 5 µM
# Summary of the method: as §1
# MK-2206 = compound: NC1(c2ccc(-c3nc4ccn5c(=O)[nH]nc5c4cc3-c3ccccc3)cc2)CCC1 [MK-2206]; conditions: max 10 µM
# Summary of the method: as §1
# Doxorubicin = compound: COc1cccc2c1C(=O)c1c(O)c3c(c(O)c1C2=O)C[C@@](O)(C(=O)CO)C[C@@H]3O[C@H]1C[C@H](N)[C@H](O)[C@H](C)O1 [Doxorubicin]; conditions: max 1 µM
# Summary of the method: as §1
# 5-Fluorouracil = compound: O=c1[nH]cc(F)c(=O)[nH]1 [5-Fluorouracil]; conditions: max 20 µM
# Summary of the method: as §1
# Gemcitabine = compound: Nc1ccn([C@@H]2O[C@H](CO)[C@@H](O)C2(F)F)c(=O)n1 [Gemcitabine]; conditions: max 0.3 µM
# Summary of the method: as §1
# AZD5991 = compound: Cc1c2c(nn1C)CSCc1cc(n(C)n1)CSc1cc(c3ccccc3c1)OCCCc1c(C(=O)O)n(C)c3c-2c(Cl)ccc13 [AZD5991]; conditions: max 1 µM
# Summary of the method: as §1
# AZD5153 = compound: COc1nnc2ccc(N3CCC(c4ccc(OCCN5CCN(C)C(=O)[C@H]5C)cc4)CC3)nn12 [AZD5153]; conditions: max 1 µM
# Summary of the method: as §1
# AZD5363 = compound: C1CN(CCC1(C(=O)N[C@@H](CCO)C2=CC=C(C=C2)Cl)N)C3=NC=NC4=C3C=CN4 [AZD5363]; conditions: max 10 µM
# Summary of the method: as §1
# AZD6738 = compound: C[C@@H]1COCCN1C2=NC(=NC(=C2)C3(CC3)[S@](=N)(=O)C)C4=C5C=CNC5=NC=C4 [AZD6738]; conditions: max 10 µM
# Summary of the method: as §1
# SG3199 = compound: CC1=CN2[C@@H](C1)C=NC3=CC(=C(C=C3C2=O)OC)OCCCCCOC4=C(C=C5C(=C4)N=C[C@@H]6CC(=CN6C5=O)C)OC [SG3199]; conditions: max 0.001 µM
# Summary of the method: as §1
# Alisertib = compound: COc1cc(Nc2ncc3c(n2)-c2ccc(Cl)cc2C(c2c(F)cccc2OC)=NC3)ccc1C(=O)O [Alisertib]; conditions: max 10 µM
# Summary of the method: as §1
# Etoposide = compound: COc1cc([C@@H]2c3cc4c(cc3[C@@H](O[C@@H]3O[C@@H]5CO[C@@H](C)O[C@H]5[C@H](O)[C@H]3O)[C@H]3COC(=O)[C@H]23)OCO4)cc(OC)c1O [Etoposide]; conditions: max 10 µM
# Summary of the method: as §1
# Taselisib = compound: Cc1nc(-c2cn3c(n2)-c2ccc(-c4cnn(C(C)(C)C(N)=O)c4)cc2OCC3)n(C(C)C)n1 [Taselisib]; conditions: max 10 µM
# Summary of the method: as §1
# AZD7648 = compound: Cc1cc2ncnn2cc1Nc1ncc2c(n1)n(C1CCOCC1)c(=O)n2C [AZD7648]; conditions: max 10 µM
# Summary of the method: as §1
# AZD1390 = compound: CC(C)n1c(=O)n(C)c2cnc3cc(F)c(-c4ccc(OCCCN5CCCCC5)nc4)cc3c21 [AZD1390]; conditions: max 0.3 µM
# Summary of the method: as §1
# Crizotinib = compound: C[C@@H](Oc1cc(-c2cnn(C3CCNCC3)c2)cnc1N)c1c(Cl)ccc(F)c1Cl [Crizotinib]; conditions: max 10 µM
# Summary of the method: as §1
# Paclitaxel = compound: CC(=O)O[C@H]1C(=O)[C@@]2(C)[C@H]([C@H](OC(=O)c3ccccc3)[C@]3(O)C[C@H](OC(=O)[C@H](O)[C@@H](NC(=O)c4ccccc4)c4ccccc4)C(C)=C1C3(C)C)[C@]1(OC(C)=O)CO[C@@H]1C[C@@H]2O [Paclitaxel]; conditions: max 3 µM
# Summary of the method: as §1
# Venetoclax = compound: CC1(C)CCC(CN2CCN(c3ccc(C(=O)NS(=O)(=O)c4ccc(NCC5CCOCC5)c([N+](=O)[O-])c4)c(Oc4cnc5[nH]ccc5c4)c3)CC2)=C(c2ccc(Cl)cc2)C1 [Venetoclax]; conditions: max 1 µM
# Summary of the method: as §1
# AZD0156 = compound: CN(C)CCCOc1ccc(-c2ccc3ncc4c(c3c2)n(C2CCOCC2)c(=O)n4C)cn1 [AZD0156]; conditions: max 3 µM
# Summary of the method: as §1
# Selumetinib = compound: Cn1cnc2c(F)c(Nc3ccc(Br)cc3Cl)c(C(=O)NOCCO)cc21 [Selumetinib]; conditions: max 10 µM
# Summary of the method: as §1
# Capivasertib = compound: C1CN(CCC1(C(=O)N[C@@H](CCO)C2=CC=C(C=C2)Cl)N)C3=NC=NC4=C3C=CN4 [Capivasertib]; conditions: max 10 µM
# Summary of the method: as §1
Cell Line,"IC50, cell viability 72 h (AZD8186; max 10 µM)","IC50, cell viability 72 h (AZD1775)","IC50, cell viability 72 h (Savolitinib)","IC50, cell viability 72 h (Trametinib)","IC50, cell viability 72 h (AZD2811)","IC50, cell viability 72 h (Lapatinib)","IC50, cell viability 72 h (Palbociclib)","IC50, cell viability 72 h (Prexasertib)","IC50, cell viability 72 h (SRA737)","IC50, cell viability 72 h (Olaparib)","IC50, cell viability 72 h (Gefitinib)","IC50, cell viability 72 h (Carboplatin)","IC50, cell viability 72 h (SN-38)","IC50, cell viability 72 h (AZD4320)","IC50, cell viability 72 h (Dasatinib)","IC50, cell viability 72 h [1]","IC50, cell viability 72 h (MK-2206)","IC50, cell viability 72 h (Doxorubicin)","IC50, cell viability 72 h (5-Fluorouracil)","IC50, cell viability 72 h (Gemcitabine)","IC50, cell viability 72 h (AZD5991)","IC50, cell viability 72 h (AZD5153)","IC50, cell viability 72 h (AZD5363)","IC50, cell viability 72 h (AZD6738)","IC50, cell viability 72 h (SG3199)","IC50, cell viability 72 h (Alisertib)","IC50, cell viability 72 h (Etoposide)","IC50, cell viability 72 h (Taselisib)","IC50, cell viability 72 h (AZD7648)","IC50, cell viability 72 h (AZD1390)","IC50, cell viability 72 h (Crizotinib)","IC50, cell viability 72 h (Paclitaxel)","IC50, cell viability 72 h (Venetoclax)","IC50, cell viability 72 h (AZD0156)","IC50, cell viability 72 h (Selumetinib)","IC50, cell viability 72 h (AZD8186; max 3 µM)","IC50, cell viability 72 h (Capivasertib)"
NCI-H810 (Non-Small Cell Lung Carcinoma),> 10 µM,0.437 µM,> 1 µM,> 1 µM,0.33 µM,> 10 µM,> 10 µM,0.0528 µM,> 10 µM,> 10 µM,> 10 µM,> 10 µM,0.202 µM,> 1 µM,> 2 µM,> 5 µM,> 10 µM,0.88 µM,> 20 µM,> 0.3 µM,> 1 µM,0.442 µM,> 10 µM,> 10 µM,> 0.001 µM,1.38 µM,> 10 µM,> 10 µM,> 10 µM,> 0.3 µM,> 10 µM,0.282 µM,> 1 µM,> 3 µM,> 10 µM,,
NCI-H1755 (Lung Adenocarcinoma),> 10 µM,0.363 µM,> 1 µM,0.444 µM,> 1 µM,> 10 µM,9 µM,0.0108 µM,2.3 µM,> 10 µM,> 10 µM,> 10 µM,> 0.3 µM,> 1 µM,0.211 µM,1.95 µM,> 10 µM,> 1 µM,> 20 µM,> 0.3 µM,> 1 µM,> 1 µM,> 10 µM,2.08 µM,> 0.001 µM,3.91 µM,> 10 µM,2.41 µM,> 10 µM,> 0.3 µM,3.97 µM,0.0582 µM,> 1 µM,> 3 µM,> 10 µM,,
RMG-I (Ovarian Carcinoma),> 10 µM,> 3 µM,> 1 µM,> 1 µM,> 1 µM,> 10 µM,> 10 µM,0.301 µM,> 10 µM,> 10 µM,> 10 µM,> 10 µM,> 0.3 µM,0.593 µM,> 2 µM,> 5 µM,> 10 µM,> 1 µM,> 20 µM,> 0.3 µM,> 1 µM,0.647 µM,> 10 µM,> 10 µM,> 0.001 µM,> 10 µM,> 10 µM,8.32 µM,> 10 µM,> 0.3 µM,> 10 µM,> 3 µM,> 1 µM,> 3 µM,> 10 µM,,
SW684 (Other Solid Carcinomas),> 10 µM,> 3 µM,> 1 µM,> 1 µM,> 1 µM,> 10 µM,> 10 µM,> 1 µM,> 10 µM,> 10 µM,> 10 µM,> 10 µM,> 0.3 µM,> 1 µM,> 2 µM,> 5 µM,> 10 µM,> 1 µM,> 20 µM,> 0.3 µM,> 1 µM,> 1 µM,> 10 µM,> 10 µM,> 0.001 µM,> 10 µM,> 10 µM,3.53 µM,> 10 µM,> 0.3 µM,> 10 µM,1.43 µM,> 1 µM,> 3 µM,> 10 µM,,
SJRH30 (Rhabdomyosarcoma),,0.317 µM,> 1 µM,> 1 µM,> 1 µM,> 10 µM,> 10 µM,0.0159 µM,,> 10 µM,> 10 µM,,> 0.3 µM,> 1 µM,> 2 µM,,> 10 µM,0.967 µM,,,0.98 µM,> 1 µM,,3.8 µM,> 0.001 µM,9.41 µM,,1.47 µM,> 10 µM,> 0.3 µM,5.22 µM,,> 1 µM,> 3 µM,> 10 µM,> 3 µM,4.7 µM
